Results on 7 compounds are retold here after BindingDB's records for doi:10.1080/14756360310001650200 (Universit&Eacute, 2004).

As a reminder, the IC50 is the point on the concentration scale where inhibition reaches its midpoint. The low end stands for inhibition by little substance, the high end for a need for much substance.

In the experiment the target is T1, Chymase (Homo sapiens, UniProt P23946).
T1 sequence (P23946 whole entry): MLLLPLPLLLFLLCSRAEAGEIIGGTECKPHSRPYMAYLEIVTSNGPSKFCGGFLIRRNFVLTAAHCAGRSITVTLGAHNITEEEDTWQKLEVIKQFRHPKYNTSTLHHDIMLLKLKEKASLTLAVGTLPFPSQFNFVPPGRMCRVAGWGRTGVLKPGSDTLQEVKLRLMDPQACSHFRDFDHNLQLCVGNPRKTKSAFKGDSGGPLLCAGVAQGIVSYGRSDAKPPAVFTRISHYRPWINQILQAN
The experiment is described as follows: Enzyme Inhibition Assay. An excerpt: Enzyme inhibitory activity using recombinant human chymase.
`Cc1ccc(S(=O)(=O)n2c(O)c3n(c2=O)-c2ccccc2C3)cc1` [Tetrahydroisoquinoline hydantoin derivative, 3a] came in with an IC50 of 172 µM.
On to `Cc1ccc(S(=O)(=O)n2c(O)c3n(c2=O)Cc2ccccc2C3)cc1C` [Tetrahydroisoquinoline hydantoin derivative, 5b], for which the IC50 is 42.8 µM.
Take `Cc1ccc(S(=O)(=O)N2C(=O)[C@@H]3Cc4ccccc4CN3C2=O)cc1` [Tetrahydroisoquinoline hydantoin derivative, 5a]: the midpoint of inhibition, the IC50, lay at 49 µM.
To `O=c1n2c(c(O)n1S(=O)(=O)c1ccc3ccccc3c1)Cc1ccccc1C2` [Tetrahydroisoquinoline hydantoin derivative, 5d] belongs 17.5 µM.
To `Cc1ccc(S(=O)(=O)n2c(O)c3n(c2=O)-c2ccccc2C3)cc1C` [Tetrahydroisoquinoline hydantoin derivative, 3b] belongs 206 µM; to `O=c1n2c(c(O)n1S(=O)(=O)c1ccc3ccccc3c1)Cc1ccccc1-2` [Tetrahydroisoquinoline hydantoin derivative, 3d], 86.8 µM; to `O=c1n2c(c(O)n1S(=O)(=O)c1ccc(Cl)c(Cl)c1)Cc1ccccc1-2` [Tetrahydroisoquinoline hydantoin derivative, 3c], 374 µM.
